# From PubChem BioAssay (NCI)
#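 Interpolation was linear, between the two tested concentrations surrounding the appropriate level; five concentrations were tested over 48 hours in 96-well plates. GI50: concentration for 50% inhibition of growth. TGI denotes the concentration required for complete inhibition of growth.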
# Columns and labels:
# Test in all cases: NCI-60 cell line screen, 48 h
# [1] = tested on: HCT-116 colon
# [2] = tested on: HOP-62 NSCLC
# [3] = tested on: HS 578T breast
# [4] = tested on: MDA-MB-231 breast
# [5] = tested on: MDA-MB-435
# [6] = tested on: NCI-H226 lung
# [7] = tested on: OVCAR-5 ovarian
# [8] = tested on: SF-539 CNS
# [9] = tested on: SK-MEL-5 melanoma
# [10] = tested on: UACC-257 melanoma
Structure (SMILES),GI50 [1] [nM],TGI [1] [µM],GI50 [2] [nM],TGI [2] [µM],GI50 [3] [µM],TGI [3] [µM],GI50 [4] [nM],TGI [4] [µM],GI50 [5] [nM],TGI [5] [µM],GI50 [6] [nM],TGI [6] [µM],GI50 [7] [µM],TGI [7] [µM],GI50 [8] [nM],TGI [8] [µM],GI50 [9] [nM],TGI [9] [µM],GI50 [10] [µM],TGI [10] [µM]
CC(O)c1cc(C(=O)N[C@@H](C)Cn2ccc(-c3ccc(C#N)c(Cl)c3)n2)n[nH]1 (stereo partly drawn),45700,> 100,> 100000,> 100,62.7,> 100,53300,> 100,32400,> 100,58500,> 100,> 100,> 100,> 100000,> 100,15200,48.3,27.5,> 100
Oc1ccc(N=Nc2ccccn2)c(O)c1,428,> 100,832,> 100,59.6,> 100,641,> 100,835,> 100,3400,82.1,2.23,> 100,999,61.8,2100,24.2,3.06,> 100
COC(=O)C(C)NC(=O)c1ccccc1I(OS(=O)(=O)C(F)(F)F)c1ccccc1 (stereo not drawn),30000,> 100,29500,90.1,19.6,47.9,15600,34.5,> 41300,> 57.1,17100,36,16.9,36.7,22700,45.6,13200,26.5,42.6,> 100
Cc1c([N+](=O)[O-])oc2ccc3ccccc3c12,,34.2,,> 100,,> 100,,> 100,,> 100,,> 100,,> 100,,> 100,,> 100,,> 100
CC(C)=CCCC(C)C1=C(O)C(=O)C(C)=CC1=O (stereo not drawn),,12.8,,36.9,,> 79.3,,7.94,,43.5,,47.5,,33.5,,41.9,,24.6,,26.1
C=C1C(=O)O[C@H]2[C@H]1CC/C(COC(=O)NCc1ccc(Cn3c(=O)sn(-c4ccccc4)c3=O)cc1)=C\CC[C@@]1(C)O[C@@H]21,1520,2.95,12400,26.3,4.14,33.1,1710,3.52,2070,4.2,14800,35.2,2.51,6.73,1570,3.06,3240,11.5,1.86,4.14
O=C(NC(=O)c1ccccc1[N+](=O)[O-])Nc1ccc(Oc2ncc(Cl)cn2)c(C(F)(F)F)c1,,27.3,,66.4,,2.45,,2.6,,< 0.0123,,1.39,,80.4,,0.489,,1.17,,41.8
C[C@@H]1COCCN1c1cc(C2(O)C[C@H]3CC[C@@H](C2)O3)c2cnn(-c3ccn[nH]3)c2n1 (stereo partly drawn),118,> 100,78.6,1.41,0.0479,0.556,138,5.68,68.5,0.692,44.8,0.528,0.0977,,23,0.0946,107,0.279,0.168,1.42
C/C(=N\NC(=S)N(C)C)c1ccccn1,0.123,,20.3,12.4,,37.2,291,17.6,4.01,18.5,64.5,5.1,,6.85,51.6,2.77,1.43,,0.000438,
NC(=S)NN=C1CSSC1,2780,11.8,2040,12.2,3.49,40,1770,9.86,5790,44.7,1660,14.5,5.26,40.9,2750,7.38,1300,2.76,1.93,17.8
CN(C)CCCn1c(-c2nonc2N)nc2cnccc21,> 25000,> 25,> 25000,> 25,19.1,> 25,> 25000,> 25,> 25000,> 25,> 4990,> 25,> 25,> 25,> 25000,> 25,> 25000,> 25,> 25,> 25
N#CC1C=Cc2c(ccc3ccccc23)N1C(=O)c1ccccc1 (stereo not drawn),63.7,> 100,387,> 100,1.31,,763,> 100,38.3,0.664,1340,> 100,0.519,> 100,238,,132,> 42.5,14.7,> 100
CC(=C/c1ccccc1)/C=C1/NC(=S)N(/C=C2\C(=O)Oc3ccccc3C2=O)C1=O,,> 100,,> 100,> 100,> 100,,> 100,,> 100,,> 100,,> 100,,> 100,,> 86.9,,> 100
Cc1cc(C(=O)c2ccccc2)c(C)c2c1[nH]c1ccc(Cl)cc12,43.7,4.74,67,23,0.0501,27.8,255,5.71,28.6,0.321,892,15.6,0.294,28,41.5,0.799,68,1.19,4.48,79.6
CC[C@H](C)C(=O)O[C@H]1C[C@H](O)C=C2C=C[C@H](C)[C@H](CC[C@@H](O)C[C@@H](O)CC(=O)O)[C@H]21,> 100000,> 100,> 100000,> 100,> 100,> 100,> 100000,> 100,> 100000,> 100,> 100000,> 100,> 100,> 100,> 100000,> 100,> 100000,> 100,> 100,> 100
CCCCCCCCCCCCCCCCCC(=O)Nc1ccn(C2OC(CO)C(O)C2O)c(=O)n1 (stereo not drawn),,> 100,,> 96.2,,> 100,,> 100,,> 100,,> 100,,> 100,,> 100,,> 97.5,,> 100
CC(C)(C)c1ccc(NS(=O)(=O)c2ccc3nc(NC(=O)c4cnccn4)[nH]c3c2)cc1,3170,19.2,2880,15.8,2.66,13.2,4340,17.1,346,1.53,2270,8.19,5.61,19,1950,4.96,1070,6.01,10.8,26
COc1c(B(O)O)cc(F)cc1-c1nc2ccc3[nH]ncc3c2c2c1CCCC2,322,10.3,< 21.2,11.5,0.0173,5.43,< 10,15,1780,3.6,2000,7.85,2.46,16.9,68.6,2.24,1990,7.34,3.65,12.5
C=CC(COC(c1ccccc1)(c1ccccc1)c1ccccc1)N(CC)CC (stereo not drawn),3430,14.3,3930,15.6,2.21,9.86,3350,13.5,4040,16.3,11900,30.9,6.66,22.1,4880,18.6,1950,3.98,2.27,6.32
O=C(NC(=S)Nc1cc(Cl)ccc1O)c1cccc(Br)c1,10800,> 100,7460,> 100,6.85,41,17000,> 100,13900,> 100,28600,> 100,57.1,> 100,7580,35.8,6210,> 100,15.3,> 100
O=C(O)c1cc2ccccc2c2c1C(=O)c1ccccc1-2,,> 100,,> 100,,> 100,,> 100,,> 100,,> 100,,> 100,,> 100,,> 100,,> 100
CC1(C)C(=O)/C(=C\c2cccnc2)C[C@]2(C)[C@H]3CC[C@@H]4[C@@H](C(=O)/C=C/c5ccncc5)CC[C@@]4(C)[C@]3(C)CC[C@@H]12,1620,3.16,1900,3.94,2.78,7.93,2960,9.94,1980,4.77,2340,5.78,2.45,5.36,1760,3.25,1670,3.05,1.8,4.44
CCN(c1cc(C#CCN2CCOCC2)cc(C(=O)NCc2c(C)cc(C)[nH]c2=O)c1C)C1CCC(N(C)CCOC)CC1 (stereo not drawn),> 100000,> 100,> 100000,> 100,> 100,> 100,> 100000,> 100,> 100000,> 100,> 100000,> 100,> 100,> 100,> 100000,> 100,> 100000,> 100,> 100,> 100
